Measurements reported in patent USRE47193E1, “Selectively substituted quinoline compounds” (EISAI R&D MANAGEMENT CO., LTD., priority 2013, dated 2019).
pIC50: −log10 of the molar value. Values joined by “and” are separate entries in the source; they are usually repeats but may differ in a detail not shown here. Equal entries are not always repeated. Where two headings read alike, the source gives them in different places.

Target: T1, human TLR8 (Homo sapiens, UniProt Q9NR97)
T1 construct: host or cells: HEK-293, then stably transfected with pNiFty2(NF-kappaB)-luciferase reporter
T1 sequence (Q9NR97 27-1041): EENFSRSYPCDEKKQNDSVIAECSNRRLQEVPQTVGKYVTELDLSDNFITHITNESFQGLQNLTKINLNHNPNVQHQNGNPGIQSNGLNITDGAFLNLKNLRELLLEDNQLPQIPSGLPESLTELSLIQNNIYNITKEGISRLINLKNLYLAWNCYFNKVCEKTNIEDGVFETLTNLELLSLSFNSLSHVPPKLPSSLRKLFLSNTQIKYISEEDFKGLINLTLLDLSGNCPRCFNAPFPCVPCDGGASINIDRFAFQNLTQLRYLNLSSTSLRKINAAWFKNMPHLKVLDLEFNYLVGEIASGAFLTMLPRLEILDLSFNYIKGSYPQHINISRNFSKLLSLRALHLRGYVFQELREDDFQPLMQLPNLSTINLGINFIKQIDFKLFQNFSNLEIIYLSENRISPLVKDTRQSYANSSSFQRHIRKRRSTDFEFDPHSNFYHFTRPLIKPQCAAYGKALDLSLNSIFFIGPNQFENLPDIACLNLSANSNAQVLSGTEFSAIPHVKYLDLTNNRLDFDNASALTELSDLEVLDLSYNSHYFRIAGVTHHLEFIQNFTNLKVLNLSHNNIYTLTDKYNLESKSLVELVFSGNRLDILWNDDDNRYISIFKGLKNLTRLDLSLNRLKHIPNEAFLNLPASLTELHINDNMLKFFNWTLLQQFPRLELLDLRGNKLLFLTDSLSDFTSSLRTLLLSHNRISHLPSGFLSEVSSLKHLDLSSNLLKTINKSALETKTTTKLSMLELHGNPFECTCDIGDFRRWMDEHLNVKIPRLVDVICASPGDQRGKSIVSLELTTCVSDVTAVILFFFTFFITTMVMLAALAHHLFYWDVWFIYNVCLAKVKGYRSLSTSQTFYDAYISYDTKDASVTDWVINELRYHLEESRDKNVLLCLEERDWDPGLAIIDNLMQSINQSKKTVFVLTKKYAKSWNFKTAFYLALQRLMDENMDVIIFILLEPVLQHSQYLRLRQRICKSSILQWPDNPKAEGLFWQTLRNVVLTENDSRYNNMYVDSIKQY
Test: HEK-293 human TLR8 NF-kappaB luciferase reporter assay (CL097)
Assay type: cell-based
Procedure: Effects on mouse TLR7 were also compared. Cells were stimulated overnight with TLR7/8 agonist CL097 at pre-determined ED70-80: 3 ug/ml for HEK-hTLR7, 1.5 ug/ml for HEK-mTLR7 and 12 ug/ml for HEK-hTLR8, before reading luminescence intensity. Three tests were performed and IC50 value was determined using Graphpad Prism 6 nonlinear regression curve fit.
HEK-293 cells (ATCC) were engineered to stably express a NF-kappaB transcription factor inducible E-selectin (ELAM-1) luciferase reporter derived from the plasmid pGL3 (Promega) containing base pairs −2241 bp to −254 bp from the promoter of the human E-selectin gene (Accession No. NM_000450). These cells were then subsequently engineered to stably and individually express human TLR4, TLR7 or TLR9 full-length ORF cDNAs. Human TLR4 cDNA (Accession No. NM_138554) was cloned into pcDNA 3.0 expression vector (Invitrogen). TLR4 transfected cells were also engineered to express human MD-2 co-receptor [MD-2 cDNA (Accession No. NM_015364) was cloned into the pEF-BOS vector] and were supplemented with 10 nM soluble CD14 (R&D Systems) in the media to optimize LPS responsiveness. Human TLR9 cDNA (Accession No. NM_017442) was cloned into the pBluescript II KS vector (Agilent). Human TLR7 cDNA (Accession No. NM_016562) was obtained from OriGene. HEK-293 cells stably expressing human TLR8 (Accession No. NM_138636) or mouse TLR7 (Accession No. NM_133211) were purchased from InvivoGen and were then stably transfected with pNiFty2(NF-kappaB)-luciferase reporter plasmid (InvivoGen). Each cell type was plated in Dulbecco's modified Eagle's medium (DMEM) containing 10% fetal bovine serum (FBS) at a density of 2.22×10^5 cells/ml into a 384-well plate and incubated for 2 days at 37° C., 5% CO2. Varying concentrations of antagonist compounds were then added. Cells were then incubated for another 30 minutes before adding the appropriate TLR agonist as follows (final concentrations indicated): lipopolysaccharide (LPS; Sigma) at 10 ng/ml for TLR4, CL097 (InvivoGen) at 3 ug/ml for human TLR7 and TLR8 and mouse TLR7, and CvG-2006-2A [sequence: […] (SEQ ID NO: 1) with phosphorothioate backbone, synthesized by Sigma-Aldrich] at 0.6 uM for TLR9.

[1] = HEK-293 assay format, read-out: HEK/hTLR8 IC50

SMILES	pIC50 [1]	other results
C[C@@H]1CN(C[C@H]2CN(c3ccc(C#N)c4ncccc34)C[C@@H](C)O2)CCN1 [ER-887269]	8.49	
CC[C@H]1CN(C[C@H]2CN(c3ccc(C#N)c4ncccc34)C[C@@H](C)O2)CCN1 [ER-890963]	8.55	
C[C@@H]1CN(c2ccc(C#N)c3ncccc23)C[C@H](C(=O)N[C@H]2CNC[C@H]2F)O1.Cl [ER-899742, (2R,6R)-4-(8-cyanoquinolin-5-yl)-N-[(3S,4R)-4-fluoropyrrolidin-3-yl]-6-methylmorpholine-2-carboxamide hydrochloride]		pIC50 (IC50, HEK-hTLR8, CL097 12 ug/ml, individual tests 1-3): 8.70 and 8.60 and 8.59; pIC50 (IC50 average, HEK-hTLR8, CL097 12 ug/ml, average of three tests): 8.62
C[C@@H]1CN(c2ccc(C#N)c3ncccc23)C[C@H](CN2CCN(C)CC2)O1 [ER-887723]	8.05	
CC1CNC(=O)CN1C[C@H]1CN(c2ccc(C#N)c3ncccc23)C[C@@H](C)O1 (stereo partly drawn) [ER-887722]	7.68	
CCCN1CCN(C[C@H]2CN(c3ccc(C#N)c4ncccc34)C[C@@H](C)O2)CC1 [ER-887724]	8.22	
C[C@@H]1CN(c2ccc(C#N)c3ncccc23)C[C@H](CNC2CCCC2)O1 [ER-887145]	6.98	
C[C@@H]1CN(c2ccc(C#N)c3ncccc23)C[C@H](CN2CCC(O)CC2)O1 [ER-886953]	7.18	
CC1CN(c2ccc(C#N)c3ncccc23)CC(CN2CCC(N(C)C)CC2)O1 (stereo not drawn) [ER-887725]	9.00	
C[C@@H]1CN(c2ccc(C#N)c3ncccc23)C[C@H](CN2CCC(N3CCCCC3)CC2)O1 [ER-887927, 5-((2S,6R)-2-([1,4′-bipiperidin]-1′-ylmethyl)-6-methylmorpholino)quinoline-8-carbonitrile]	9.30	
C[C@@H]1CN(c2ccc(C#N)c3ncccc23)C[C@H](CN2CCNCC2)O1 [ER-887253]	8.70	
CC1CN(c2ccc(C#N)c3ncccc23)CC(CN2CCCC2CO)O1 (stereo not drawn) [ER-886814]	7.22	
C[C@@H]1CN(c2ccc(C#N)c3ncccc23)C[C@H](CN2CC[C@H](O)C2)O1 [ER-886820]	7.11	
CCN(CCO)CCCC(C)Nc1ccnc2cc(Cl)ccc12 (stereo not drawn) [HCQ, hydroxychloroquine, reference compound]		pIC50 (HEK-hTLR8, CL097 12 ug/ml, average of three tests, read-out: IC50 average): < 5.00; pIC50 (HEK-hTLR8, CL097 12 ug/ml, individual tests 1-3, read-out: IC50): < 5.00
C[C@@H]1CN(c2ccc(C#N)c3ncccc23)C[C@H](C)O1 [ER-878952]	8.22 and 7.71	
C[C@@H]1CN(c2ccc(C#N)c3ncccc23)C[C@H](CO)O1 [ER-885493, 5-((2R,6R)-2-(hydroxymethyl)-6-methylmorpholino)quinoline-8-carbonitrile]	7.00	
